Reference: PubChem BioAssay (NCI)
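Exposure lasted 48 hours, with cells grown in 96-well plates and compounds tested at five concentrations. TGI: concentration producing complete growth inhibition.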

Tests used:
Test in all cases: NCI anticancer screen, dose series, 48 h
SNB-19 CNS = test system: SNB-19 CNS
KM12 colon = test system: KM12 colon
OVCAR-8 ovarian = test system: OVCAR-8 ovarian
OVCAR-4 ovarian = test system: OVCAR-4 ovarian
HCT-15 colon = test system: HCT-15 colon
A549 NSCLC = test system: A549 NSCLC
M14 melanoma = test system: M14 melanoma
786-0 renal = test system: 786-0 renal
HCT-116 colon = test system: HCT-116 colon
OVCAR-3 ovarian = test system: OVCAR-3 ovarian
TK-10 renal = test system: TK-10 renal
A498 renal = test system: A498 renal
KM20L2 colon = test system: KM20L2 colon
RPMI-8226 leukemia = test system: RPMI-8226 leukemia
NCI-H460 lung = test system: NCI-H460 lung
NCI-H522 lung = test system: NCI-H522 lung
LOX IMVI melanoma = test system: LOX IMVI melanoma
HOP-92 NSCLC = test system: HOP-92 NSCLC
NCI-H23 lung = test system: NCI-H23 lung
SF-268 CNS = test system: SF-268 CNS
MOLT-4 leukemia = test system: MOLT-4 leukemia
SF-539 CNS = test system: SF-539 CNS
HCC-2998 colon = test system: HCC-2998 colon
SNB-75 CNS = test system: SNB-75 CNS
SNB-78 CNS = test system: SNB-78 CNS
DMS 114 small cell lung = test system: DMS 114 small cell lung
HOP-18 NSCLC = test system: HOP-18 NSCLC
SN12C renal = test system: SN12C renal
EKVX NSCLC = test system: EKVX NSCLC
ACHN renal = test system: ACHN renal
U251 CNS = test system: U251 CNS
SF-295 CNS = test system: SF-295 CNS
K-562 leukemia = test system: K-562 leukemia
SK-MEL-5 melanoma = test system: SK-MEL-5 melanoma
OVCAR-5 ovarian = test system: OVCAR-5 ovarian
CCRF-CEM leukemia = test system: CCRF-CEM leukemia
SK-OV-3 ovarian = test system: SK-OV-3 ovarian
SW-620 colon = test system: SW-620 colon
RXF-631 renal = test system: RXF-631 renal
UO-31 renal = test system: UO-31 renal
IGROV1 ovarian = test system: IGROV1 ovarian
HL-60(TB) leukemia = test system: HL-60(TB) leukemia
UACC-257 melanoma = test system: UACC-257 melanoma
UACC-62 melanoma = test system: UACC-62 melanoma
DMS 273 small cell lung = test system: DMS 273 small cell lung
COLO 205 colon = test system: COLO 205 colon
DLD-1 colon = test system: DLD-1 colon
NCI-H226 lung = test system: NCI-H226 lung
HOP-62 NSCLC = test system: HOP-62 NSCLC
HT29 colon = test system: HT29 colon
SK-MEL-2 melanoma = test system: SK-MEL-2 melanoma
SK-MEL-28 melanoma = test system: SK-MEL-28 melanoma
MALME-3M melanoma = test system: MALME-3M melanoma
CAKI-1 renal = test system: CAKI-1 renal
SR leukemia = test system: SR leukemia
RXF 393 renal = test system: RXF 393 renal
LXFL 529 NSCLC = test system: LXFL 529 NSCLC
M19-MEL melanoma = test system: M19-MEL melanoma
XF 498 CNS = test system: XF 498 CNS

O=C1NC2(NC(=O)C1=O)Nc1ccccc1S2
TGI (SNB-19 CNS): > 100 µM
TGI (KM12 colon): > 100 µM
TGI (OVCAR-8 ovarian): > 100 µM
TGI (OVCAR-4 ovarian): > 100 µM
TGI (HCT-15 colon): > 59.5 µM
TGI (A549 NSCLC): > 100 µM
TGI (M14 melanoma): > 100 µM
TGI (786-0 renal): 48.6 µM
TGI (HCT-116 colon): 38.9 µM
TGI (OVCAR-3 ovarian): > 100 µM
TGI (TK-10 renal): > 100 µM
TGI (A498 renal): > 100 µM
TGI (KM20L2 colon): > 100 µM
TGI (RPMI-8226 leukemia): 57.9 µM
TGI (NCI-H460 lung): > 100 µM
TGI (NCI-H522 lung): 50 µM
TGI (LOX IMVI melanoma): 37.8 µM
TGI (HOP-92 NSCLC): > 100 µM
TGI (NCI-H23 lung): > 100 µM
TGI (SF-268 CNS): > 76.3 µM
TGI (MOLT-4 leukemia): > 92.5 µM
TGI (SF-539 CNS): 62.7 µM
TGI (HCC-2998 colon): > 100 µM
TGI (SNB-75 CNS): > 100 µM
TGI (SNB-78 CNS): > 100 µM
TGI (DMS 114 small cell lung): 79.8 µM
TGI (HOP-18 NSCLC): > 100 µM
TGI (SN12C renal): > 61.4 µM
TGI (EKVX NSCLC): > 100 µM
TGI (ACHN renal): > 76.1 µM
TGI (U251 CNS): > 82.5 µM
TGI (SF-295 CNS): > 100 µM
TGI (K-562 leukemia): > 64.7 µM
TGI (SK-MEL-5 melanoma): > 100 µM
TGI (OVCAR-5 ovarian): > 100 µM
TGI (CCRF-CEM leukemia): 66.3 µM
TGI (SK-OV-3 ovarian): > 100 µM
TGI (SW-620 colon): > 46.1 µM
TGI (RXF-631 renal): 47.9 µM
TGI (UO-31 renal): > 95.4 µM
TGI (IGROV1 ovarian): > 100 µM
TGI (HL-60(TB) leukemia): > 64.8 µM
TGI (UACC-257 melanoma): > 100 µM
TGI (UACC-62 melanoma): 63.8 µM
TGI (DMS 273 small cell lung): > 100 µM
TGI (COLO 205 colon): > 54.9 µM
TGI (DLD-1 colon): > 67.5 µM
TGI (NCI-H226 lung): > 100 µM
TGI (HOP-62 NSCLC): > 100 µM
TGI (HT29 colon): > 100 µM
TGI (SK-MEL-2 melanoma): > 100 µM
TGI (SK-MEL-28 melanoma): > 100 µM
TGI (MALME-3M melanoma): > 100 µM
TGI (CAKI-1 renal): > 100 µM
TGI (SR leukemia): 61.9 µM
TGI (RXF 393 renal): > 100 µM
TGI (LXFL 529 NSCLC): > 87.3 µM

COc1ccccc1/C=C1\N=C(C)OC1=O
TGI (SNB-19 CNS): > 100 µM
TGI (KM12 colon): > 100 µM
TGI (OVCAR-8 ovarian): > 100 µM
TGI (OVCAR-4 ovarian): > 100 µM
TGI (HCT-15 colon): > 100 µM
TGI (M14 melanoma): > 100 µM
TGI (OVCAR-3 ovarian): > 100 µM
TGI (TK-10 renal): > 100 µM
TGI (KM20L2 colon): > 100 µM
TGI (NCI-H522 lung): > 100 µM
TGI (HOP-92 NSCLC): > 100 µM
TGI (NCI-H23 lung): > 100 µM
TGI (MOLT-4 leukemia): > 100 µM
TGI (HCC-2998 colon): > 100 µM
TGI (SNB-78 CNS): > 100 µM
TGI (SN12C renal): > 100 µM
TGI (M19-MEL melanoma): > 100 µM
TGI (U251 CNS): > 100 µM
TGI (SF-295 CNS): > 100 µM
TGI (K-562 leukemia): > 100 µM
TGI (SK-MEL-5 melanoma): > 100 µM
TGI (OVCAR-5 ovarian): > 100 µM
TGI (CCRF-CEM leukemia): > 100 µM
TGI (SK-OV-3 ovarian): > 100 µM
TGI (SW-620 colon): > 100 µM
TGI (RXF-631 renal): > 100 µM
TGI (UO-31 renal): > 100 µM
TGI (IGROV1 ovarian): > 100 µM
TGI (UACC-62 melanoma): > 100 µM
TGI (COLO 205 colon): > 100 µM
TGI (DLD-1 colon): > 100 µM
TGI (HT29 colon): > 100 µM
TGI (SK-MEL-2 melanoma): > 100 µM
TGI (SK-MEL-28 melanoma): > 100 µM
TGI (MALME-3M melanoma): > 100 µM
TGI (CAKI-1 renal): > 100 µM
TGI (SR leukemia): > 100 µM
TGI (RXF 393 renal): > 100 µM
TGI (XF 498 CNS): > 100 µM
